# Source: patent US10561638B2, “Methods for treating dependence” (Biotie Therapies, Inc., priority 2007, dated 2020)
# Entries after “also recorded” stand apart in the source; their conditions may differ.
# Key:
# [1] = in vivo
# Experimental: The pharmacokinetics of nepicastat after a single 40 mg dose was compared in men and women.
# [2] = tested on: MPTP-lesioned squirrel monkey; experiment: MPTP-lesioned squirrel monkey Parkinsonian model; format: in vivo, squirrel monkeys
# Experimental: Twenty four squirrel monkeys, fourteen females and ten males were used in a Parkinsonian model. The twenty-four animals were randomly assigned to one of four treatment groups, with 6 animals per group. The groups consisted of the following: Group A (6 animals) received placebo (water) treatment; Group B (5 animals) received drug nepicastat at 1 mg/kg/day (0.5 mg/kg twice daily); Group C (6 animals) received 4 mg/kg/day (2 mg/kg twice daily); and Group D (6 animals) received 10 mg/kg/day (5 mg/kg twice daily). In Group B, one animal died acutely following MPTP-lesioning, and was not replaced.
# Prior to lesioning, animals were subjected to quantitative assessment of spontaneous motor activity using an infrared activity monitor (IRAM) cage. All recording sessions were 60 minutes in length and were carried out for 10 sessions over a period of 2 weeks. The behavior of animals was also assessed by 1 to 3 clinical raters using a parkinsonian clinical rating scale (CRS) once per day (12 noon to 1 pm) for 3 to 5 consecutive days. […] Both the activity monitoring (IRAM) and clinical rating assessments established the mean base-line activity of each animal.
# Animals were lesioned by the administration of MPTP at a concentration of 2.0 mg/kg (free-base) via subcutaneous injection to achieve a parkinsonian state. A post-MPTP lesioning behavioral assessment was carried out 2 to 4 weeks after the last MPTP-lesioning. Locomotor activity was monitored by IRAM in 60-minute sessions for 3 to 5 days. Clinical behavior (CAS) was assessed by one to three individuals rating over a period of 3 to 5 days.
# Animals were tested for response to L-Dopa and the efficacy of drug nepicastat. Testing was carried out 4 to 12 weeks after the last MPTP dose. L-Dopa was administered at a concentration of either 2.5, 5, or 7.5 mg/kg by oral gavage twice daily (at 10 am and 2 pm) for 7 consecutive days. Behavior was determined by IRAM and CRS. Clinical rating was carried out 60 to 90 minutes following the 10 am morning dose on the last 4 days of treatment. Raters (one to three individuals) were blinded to the different treatment groups. IRAM assessment were preformed for 90 minutes immediately following drug administration at 2 pm on the last 2 to 5 days of drug treatment. There was a minimum 2 day washout period between each treatment dose.
# Nepicastat or water (as placebo) was administered for 12 days following a minimum 2 day washout after L-Dopa dosing. Drug was administered twice daily at 10 am and 2 pm by oral gavage. Behavior was rated by IRAM and CRS. The CRS was conducted in the morning, 60 to 90 minutes after the 10 am dose of nepicastat on the last 5 days of drug treatment. Raters (one to three individuals) were blinded to the different treatment groups. IRAM assessments were preformed for 90 minutes immediately following drug administration at 2 pm on the last 5 days of drug treatment.
# Eight parkinsonian features were rated in each animal and the total score was derived from the sum of these eight features. For each animal, a single clinical rating score was obtained for each drug dose by averaging the clinical rating scores of all raters (one to three) conducted over the consecutive multiple dosing (with the same dose) days. This average CRS was used for statistical analysis. A lower score was considered a less parkinsonian behavioral state.
# Statistical analysis consisted of: (1) comparisons between the average CRS of placebo to nepicastat at 1, 4, and 10 mg/kg/day using the Kruskal-Wallis (non-parametric analysis of variance). This comparison was repeated using the average CRS for each experimental drug concentration corrected by the final post-MPTP ratings for each animal. The corrected clinical scores are clinical scores of experimental drug at each concentration as a ratio of post-MPTP clinical scores. […]
# [3] = Pilot observation studies in rats, acute and repeated oral administration
# Experimental: Similarly, in a separate study, physostigmine (1, 3, 10 or 30 mg/kg p.o.) or vehicle were administered acutely to groups of 8 rats.
# In pilot studies of repeated administration, nepicastat (100 mg/kg p.o.) or vehicle was administered twice daily (06:00 and 18:00 h) for 10 days (once on day 11) to groups of 8 rats. The weights of the animals were monitored throughout the study and, on day 5, the animals were observed ‘blind’ by an independent observer in order to assess any overt behavioural/physiological effects following repeated administration. In a separate study, groups of 8 rats received vehicle or physostigmine (0.3, 1, 3 or 10 mg/kg p.o.) using the same dosing schedule. The weights of the animals were monitored throughout the study.
# [4] = tested on: short-term or working memory in rats; experiment: Delayed-matching-to-position (DMTP) test; format: in vivo, Sprague Dawley rats
# Experimental: In the present DMTP study, rats were trained to remember the position of a lever across a scheduled delay of either 0, 8, 16 or 32 s in order to earn food reward. […] Another group of rats received only vehicle treatment throughout the experiment. […] The dependent measures in the present study included percentage of correct choices, the latency to make choice responses and the number of trials which the animals were able to complete during the 70 min test sessions. Changes in the former measure may indicate changes in memory and/or attentional function whereas changes in the latter two measures may be indicative of other non-cognitive effects of the drugs. Matching to position training began next. This and all subsequent training was conducted with the partitions fitted into the operant boxes. The sessions were initially 50 minutes long. Rats were placed in the operant box and the session began when the houselight was illuminated. Following a 30 s intertrial interval (ITI), one of the two levers (the sample lever) was inserted into the chamber. The lever remained inserted into the chamber until a lever-press response occurred. […] As soon as the magazine flap was pressed the magazine light was extinguished and both levers were inserted. […] The magazine light remained on until the flap was pressed. […] A 30 s ITI was initiated before the commencement of a new trial. The lever inserted as the sample lever was semi-randomly determined such that the right and lefthand levers were presented as the sample lever 8 times in a block of 16 trials. Following 24 sessions, the animals were performing the matching to position task with a high degree of accuracy. On Session 25 a variable delay interval was interposed between the depression of the sample lever and presentation of the levers on the choice trial. After a response to the sample lever, the choice levers were inserted following the first flap press occurring after either a 0 s (immediate), 4, 8 or 16 s delay. The order of the four types of trials (0, 4, 8 or 16 s delay) was semi-randomly determined with the constraint that in a 16 trial block, each delay occurred 4 times; twice on a left trial and twice on a right trial. […] The same trial was reinstated following the end of the ITI. From Session 25 onward the time-out period following incorrect choices was omitted and the session length was increased to 70 minutes. […] Due to poor performance at the 64 s delay, however, this delay was not used in any further sessions. On Session 59, delays of 0, 8, 16 and 32 s were used. These delays were used in all subsequent sessions. Only 51 of the 56 rats completed more than 24 trials (correction plus non-correction) during Session 59. These rats were selected and semi-randomly assigned to the following 7 groups such that the groups were matched on performance (percent correct, response latency and number of trials completed): […] Thus, the drug treatments administered to the seven groups during the 11 consecutive days of the present experiment were: The data collected and analyzed in the present DMTP study include 1) the percentage of correct responses; 2) the latency between performance of a response to the sample lever and the performance of the choice response and 3) the total number of correction and non-correction trials completed. The former two dependent measures were collected for the non-correction trials only. […] Two-way analysis of variance (ANOVA) with drug treatment as the between-subjects factor and delay (0, 8, 16 or 32 s) as the within-subjects factor was used to analyze percentage of correct choices and response latency. These analyses were conducted separately for each block of data. Significant interactions were followed by a one-way ANOVA which was conducted at each delay. A significant main effect from a one-way ANOVA was followed by a two-tailed Dunnett's t-test. One-way ANOVA followed by a post hoc Dunnett's test, when appropriate, was used to analyze the mean number of trials completed. […]
# [5] = tested on: serum T3 and T4 levels; experiment: Thyroid function (serum T3, T4) in iodine-deficient rats; format: in vivo, Sprague-Dawley rats; conditions: for reduction in serum T3 / reduction in serum T4: 1 mg/kg po b.i.d.; for effect on serum T3 and T4 levels: methimazole 1 mg/kg b.i.d. (2 mg/kg/d)
# Experimental: Since the heterocyclic portion of nepicastat is structurally similar to methimazole, a known potent suppressor of mammalian thyroid function, the effects of nepicastat on thyroid function were evaluated at doses of 2.0 and 6.2 mg/kg, po, b.i.d in iodine-deficient Sprague-Dawley rats (n=9-12) for 10 days.
# Male Sprague-Dawley rats, weighing 180-200 grams, were fed an iodine deficient diet (Purina, 5891C, Lot 1478, 0.066±0.042 mg iodine/kg sample) ad libitum 14 days prior to treatment. Animals were weighed and randomly assigned to one of the following treatment groups (n=12 per group): nepicastat at 2.0 mg/kg, nepicastat at 6.2 mg/kg, Methimazole at 1 mg/kg, or vehicle at 1 ml/kg. Each group of rats was dosed orally in the evening and the following morning, approximately 12 hours apart, for 10 consecutive days.
# Orbital blood samples were taken at day −3, 0, 3, 7, and 9 (day 0 was the first day of dosing). Serum samples were analyzed for T3 and T4 levels using a radioimmunoassay.
# To statistically evaluate changes in T3 and T4 levels, a change from baseline was calculated from the day −3 time point. A non-parametric two-way within subject analysis of variance (ANOVA) was conducted. Also a one-way ANOVA was performed to detect if a significant difference from control occurred. Pairwise analyses between controls and each treatment group were carried out using Fisher's LSD strategy to control the experiment-wise error rate. For statistical analysis of catecholamine levels, a one-way ANOVA with factor DOSE was performed. Pairwise analyses between treated and controls at each dose were carried out using Fisher's LSD strategy to control the experiment-wise error rate.
smiles,measurement,setting,value
CC(=O)NCc1c[nH]c(=S)n1[C@H]1CCc2c(F)cc(F)cc2C1 [N-acetyl metabolite of nepicastat],"Cmax and AUC of the N-acetyl metabolite, slow vs fast acetylators",[1],much lower in the slow acetylators
"N[C@@H](Cc1ccc(O)c(O)c1)C(=O)O [L-Dopa, reference compound]",parkinsonian clinical rating vs post-MPTP,[2]; L-Dopa 2.5 mg/kg,No groups of animals demonstrated significant improvement; also recorded: no significant effect
same,parkinsonian clinical rating vs post-MPTP (pre-treatment),"[2]; L-Dopa 5 and 7.5 mg/kg, except Group C at 7.5 and Group B at 5 mg/kg",significant improvement; also recorded: significant effect
"CNC(=O)Oc1ccc2c(c1)[C@]1(C)CCN(C)[C@@H]1N2C [physostigmine, Physostigmine sulphate, reference compound]",convulsions on repeated administration,[3]; physostigmine 3 mg/kg p.o.,2 of 8 animals convulsed on day 5
same,mortality on repeated administration,[3]; physostigmine 10 mg/kg p.o.,3 of 8 animals were found dead on day 2
same,acute toxicity,[3]; physostigmine 30 mg/kg p.o.,Signs of toxicity were observed
same,effects of repeated administration,[3]; physostigmine 0.3 or 1 mg/kg,no effects
same,acute doses inducing overt behavioural effects,[3]; physostigmine p.o.,≥ 3 mg/kg
same,all dependent measures,[4]; Block 2,no significant effects on any of the dependent measures
same,choice accuracy,"[4]; Block 3, physostigmine 1.0 mg/kg b.i.d.",delay-independent impairment in choice accuracy
same,"response latency, number of trials completed",[4]; Block 5,did not significantly affect
same,improvement of DMTP performance,"[4]; administered alone, 10 days",did not improve performance
same,reversal of the effects of scopolamine,[4]; day 11 scopolamine test,did not appear to reverse the effects of scopolamine
Cn1cc[nH]c1=S [methimazole],reduction in serum T3,"[5]; day 3, 4 h post-dose",31%
same,reduction in serum T4,"[5]; day 3, 4 h post-dose",46%
same,reduction in serum T3,"[5]; day 7, 4 h post-dose",42%
same,reduction in serum T4,"[5]; day 7, 4 h post-dose",58%
same,reduction in serum T3,"[5]; day 9, 4 h post-dose",44%
same,effect on serum T3 and T4 levels,[5],significantly reduced
same,effect on serum T3 and T4 levels,[5]; listed as Methimazole,significantly (p<0.05) lowered
same,T4 levels vs vehicle,"[5]; methimazole 1.0 mg/kg, day nine",marginally (p<0.10) lower
